Columns and labels:
[1] = test system: low density lipoprotein (LDL); assay: Inhibition of Copper Ion Mediated Oxidation of Low Density Lipoprotein; format: biochemical; conditions: Cu^+2 mediated oxidation of rabbit or monkey LDL; 37° C., 90 minutes; absorbance at 532 nm
Description: 5. Inhibition of Copper Ion Mediated Oxidation of Low Density Lipoprotein
In this in vitro assay, the inhibition of Cu^+2 mediated oxidation of rabbit or monkey LDL by an invention compound is determined spectrophotometricallly. Oxidation of LDL results in the formation of LDL-diene which absorbs light at 532 nm. Inhibition of oxidation of LDL leads to a decrease in absorbance at 532 nm.
Rabbit or monkey LDL is prepared according to the procedures of Havel, Eder and Gragdon, "The Distribution and Chemical Composition of Ultracentrifugally Separated Lipoproteins in Human Serum,: J. Clin. Invest. 34, 1345-1353 (1955) and Parhtasarathy, Wieland and Steriberg, "A Role for Endothelial Cell Lipoxygenase in the Oxidative Modification of Low Density Lipoprotein," Proc. Natl. Acad. Sci. USA 86, 1046-1050 (1989). Test compound solutions are prepared by dissolving the invention compounds in ethanol at concentrations up to 248 μM. The medium used is Dulbecco's phosphate buffered saline containing 0.5 mg/ml bovine serum albumin. For standards, 0 to 10 μl of an aqueous solution of 1,1,3,3-tetraethoxypropane (1 μmol/ml H2 O) in 4.1 ml of medium is used.
Test compound solution (100 μl) is added to 4 ml of medium in incubation tubes. To each tube is added 10 μl of LDL solution and 25 μl of aqueous copper sulfate solution (1.32 mg/ml H2 O). The tubes are incubated at 37° C. for 90 minutes and the oxidation reaction quenched by addition of 1 ml of thiobarbituric acid solution (0.67% in 50% acetic acid). The tubes are heated at 90° C. for 1 hour, then chilled in an ice bath and the chromophore extracted into 2 ml of n-butanol. Absorbence is read at 532 nm and the results are reported as nmols of malondialdehyde equivalents.
Significant differences (p<0.05) are determined by the Dunnett T-test or by the Student-Newman-Keuls Test for significant differences between means. The assay is conducted using several concentrations [I] of the inhibitor test compounds. […] The IC50 is determined by non-linear regression, plotting log [I] vs. % inhibition. […]

[2] = test system: LT-dependent bronchoconstriction; assay: Inhibition of Bronchoconstriction in Guinea Pigs Induced by Exogenously Administered Antigen; format: in vivo, guinea pig (male); conditions: Cavia porcellus, 5 min, 5 min post-antigen challenge; for inhibition in vivo at 10 mg/kg: iv, 10 mg/kg i.v.
Description: 4. Inhibition of Brochoconstriction in Guinea Pigs Induced by Exogenously Administered Antigen
Male guinea pigs (Charles River, Wilmington, Mass.) were sensitized 3-4 weeks prior to antigen challenge by administration of 2 i.m. injections of ovalbumin, 1 into each hind limb (35 mg total). Sensitized animals (500-600 g) were fasted overnight prior to experimentation. Conscious animals were then dosed p.o. with drug or vehicle alone (0.5% Tween 80 in H2 O) at the indicated times prior to antigen challenge, or anesthetized animals were dosed i.v. with drug or vehicle alone (DMSO) 5 min prior to antigen challenge. Animals were anesthetized by urethane (2.8 g/kg i.p.). A carotid artery and jugular vein were cannulated to allow for the monitoring of blood pressure and the administration of drugs, respectively. The trachea was then cannulated and connected to a Harvard Apparatus rodent ventilator (S. Natick, Mass.). Spontaneous respiration was abolished by the administration of succinylcholine (2.5 mg/kg i.v.). The animals were then ventilated with room air at a rate of 65 breaths per min. Airway inflation pressure was measured using a Statham pressure transducer (Gould Instruments, Cleveland, Ohio) connected to the tracheal cannula via a side-arm and recorded on a Grass Instruments recorder (Quincy, Mass.). The tidal volume (approximately 10 cc/kg) was adjusted to give a baseline inflation pressure of 8-10 cm H2 O at end inspiration. Animals were then allowed 20 min to stabilize.
Following the stabilization period, animals were given i.v. injections of pyrilamine (5 mg/kg), propranolol (0.1 mg/kg) and indomethacin (10 mg/kg) at 15, 10 and 5 min, respectively, prior to antigen challenge. This pretreatment results in an LT-dependent bronchoconstriction following antigen challenge, which was accomplished by i.v. administration of ovalbumin (10 mg/kg). Only one bronchoconstriction per animal was induced. End-inspiratory inflation pressure (in cm H2 O over baseline) was measured at 5 min post-antigen challenge. A mean value and standard error for the % inhibition of control bronchoconstriction in each drug-treated group was then calculated.

LTB4 Synthesis = assay: Reverse Passive Arthus Reaction (pleurisy), LTB4 in pleural exudate; format: in vivo, rat (male Lewis); conditions: p.o.
Description: 3. Reverse Passive Arthus Reaction
A reverse passive Arthus reaction is induced in the pleural cavity of male Lewis rats (150-200 g; fasted overnight prior to use) by the intravenous administration of bovine serum albumin (BSA; 4 mg/0.2 ml) followed 30 minutes later by the injection of rabbit anti-BSA (1 mg/0.2 ml; lyophilized IgG fraction; Organon Teknika, West Chester, Pa.) into the right pleural space under halothane anesthesia. Drugs or vehicle (0.5% Tween-80) control are administered orally in a volume of 1 ml/100 g body weight at 1 hour prior to the anti-BSA. Animals are sacrificed at either the time of peak eicosanoid production (i.e. 5 minutes after anti-BSA for immunoreactive TxB2, 10 minutes for immunoreactive LTB4, 20 minutes for immunoreactive LTC4) or at the time of peak neutrophil infiltration (4 hours after anti-BSA) by CO2 inhalation. The pleural cavity is then exposed., the fluid exudate removed by gentle vacuum aspiration and the volume of exudate is recorded. For the determination of cellular infiltration, the pleural cavity is rinsed with 3 ml of 0.1% EDTA in sterile saline, and the recovered wash is pooled with the exudate. Cell number is determined on a model ZBI Coulter counter. For determination of eicosanoid production, undiluted pleural exudate is microfuged and the supernatant is extracted with ethanol (8-10 times volume). Extracts are either stored at -20° C., or are evaporated to dryness under a stream of N2 and reconstituted in radioimmunoassay (RIA) buffer.
Eicosanoids are quantitated by RIA according to the procedure specified by the RIA kit manufacturer (Advanced Magnetics, Cambridge, Mass.). Briefly, 100 μl of ^3 H-labeled eicosanoid and 100 μl of specific antibody are sequentially added to 100 μl of extracted pleural exudate in BGG-phosphate buffer which contains 0.01M phosphate, 0.1% bovine gamma globulin and 0.1% sodium azide at pH 7.0. Antibody-bound eicosanoid is separated from unbound eicosanoid by the addition of 750 μl of dextran (0.4%)-coated charcoal (Norit A) containing 0.1% sodium azide. The mixture is centrifuged at 2000 RPM at 5° C. for 15 minutes to pellet the charcoal and adsorbed unbound eicosanoid. Antibody-bound labeled eicosanoid is quantitated by counting in a liquid scintillation counter, and is correlated to concentration by a standard curve.

Row | SMILES | IC50 [1] [µM] | inhibition in vivo at 10 mg/kg [2] [%] | % Inhibition LTB4 Synthesis (LTB4 Synthesis; 25 mg/kg) [%] | % Inhibition LTB4 Synthesis (LTB4 Synthesis; 10 mg/kg) [%] | inhibition in vivo at 25 mg/kg ([2]; po, 25 mg/kg p.o.) [%]
1 | NC(=O)N(O)Cc1cccc(OCc2csc(-c3ccc(Cl)cc3)n2)c1 [Example 6, 1-Hydroxy-1-[3-[2-(4-chloro-phenyl)-thiazol-4-ylmethoxy]-benzyl]-urea] | 0.59 | 70 | – | – | –
2 | Cc1oc(-c2ccccc2)nc1COc1cccc(CN(O)C(N)=O)c1 [Example 1, 1-Hydroxy-1-[3-(5-methyl-2-phenyl-oxazol-4-ylmethoxy)-benzyl]-urea] | 0.64 | – | 79 | – | –
3 | NC(=O)N(O)Cc1cccc(OCc2csc(-c3ccccc3)n2)c1 [Example 5, 1-Hydroxy-1-[3-(2-phenyl-thiazol-4-ylmethoxy)-benzyl]-urea] | – | – | – | 43 | 29
4 | Cc1oc(-c2ccc(F)cc2)nc1COc1cccc(CN(O)C(N)=O)c1 [Example 9, 1-[3-[2-(4-fluorophenyl)-5-methyl-oxazol-4-ylmethoxy]-benzyl]-1-hydroxy-urea] | 0.57 | 65 | – | 27 | –
5 | Cc1oc(-c2ccccc2)nc1COc1cc(F)cc(CN(O)C(N)=O)c1 [Example 13, 1-[3-Fluoro-5-(5-methyl-2-phenyl-oxazol-4-ylmethoxy)-benzyl]-1-hydroxy-urea] | – | 29 | – | 17 | –
